Target: T1, human full-length MKNK1 (Homo sapiens, UniProt Q9BUB5, T385D)
T1 construct: GST (N); purchased Carna Biosciences 02-145; host or cells: insect cells (baculovirus expression system)
Experiment: MKNK1 kinase high ATP assay (TR-FRET)
Format: biochemical
Details: 2 mM ATP, after preincubation with MKNK1; read-out: MKNK1 IC50 (MKNK1 high ATP)
Outline: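 Compound was preincubated 15 min at 22° C. with MKNK1 in 50 mM HEPES pH 7.5, 5 mM MgCl2, 1.0 mM DTT, then the reaction ran 30 min at 22° C. with 2 mM ATP and 0.06 μM biotinylated peptide (final).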

T1 sequence (Q9BUB5 1-424 isoform Q9BUB5-2 T344D): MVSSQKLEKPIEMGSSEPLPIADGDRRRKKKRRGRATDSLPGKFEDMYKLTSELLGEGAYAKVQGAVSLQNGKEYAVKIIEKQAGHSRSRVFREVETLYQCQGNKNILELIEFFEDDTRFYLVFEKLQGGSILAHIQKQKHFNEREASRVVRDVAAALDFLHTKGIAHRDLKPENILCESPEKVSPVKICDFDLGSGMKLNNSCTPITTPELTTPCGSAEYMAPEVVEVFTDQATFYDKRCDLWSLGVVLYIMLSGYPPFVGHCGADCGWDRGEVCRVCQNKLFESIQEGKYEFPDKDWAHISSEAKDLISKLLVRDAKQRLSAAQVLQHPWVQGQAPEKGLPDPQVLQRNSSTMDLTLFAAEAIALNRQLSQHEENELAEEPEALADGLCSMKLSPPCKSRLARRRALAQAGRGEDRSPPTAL

SMILES | IC50
O=C(NCc1cccs1)C1CCc2c(sc3ncnc(Nc4ccc5[nH]ncc5c4)c23)C1 (racemic) [Example 90, (RS)-4-(1H-indazol-5-ylamino)-N-(thiophen-2-ylmethyl)-5,6,7,8-tetrahydro[1]benzothieno[2,3-d]pyrimidine-7-carboxamide] | 16.4 nM
CC(C)Oc1cc2[nH]ncc2cc1Nc1ncnc2sc3c(c12)CCC(C(=O)N1CCCCC1)C3 (racemic) [Example 213, (RS)-Piperidin-1-yl(4-{[6-(propan-2-yloxy)-1H-indazol-5-yl]amino}-5,6,7,8-tetrahydro[1]benzothieno[2,3-d]pyrimidin-7-yl)methanone] | 1.5 nM
CCOc1cc2[nH]ncc2cc1Nc1ncnc2sc3c(c12)CCC(C(=O)N(CC)CCC#N)C3 (racemic) [Example 242, (RS)—N-(2-Cyanoethyl)-4-[(6-ethoxy-1H-indazol-5-yl)amino]-N-ethyl-5,6,7,8-tetrahydro[1]benzothieno[2,3-d]pyrimidine-7-carboxamide] | 0.3 nM
COc1cc2[nH]ncc2cc1Nc1ncnc2sc3c(c12)CCC(C(=O)N1CCC(C)(C)C1)C3 (racemic) [Example 180, (RS)-(3,3-Dimethylpyrrolidin-1-yl){4-[(6-methoxy-1H-indazol-5-yl)amino]-5,6,7,8-tetrahydro[1]benzothieno[2,3-d]pyrimidin-7-yl}methanone] | 0.8 nM
CC(C)Oc1cc2[nH]ncc2cc1Nc1ncnc2sc3c(c12)CCC(C(=O)N(C)CC(F)F)C3 (racemic) [Example 216, (RS)—N-(2,2-Difluoroethyl)-N-methyl-4-{[6-(propan-2-yloxy)-1H-indazol-5-yl]amino}-5,6,7,8-tetrahydro[1]benzothieno[2,3-d]pyrimidine-7-carboxamide] | 0.5 nM
Cc1ccccc1N1CCN(C(=O)C2CCc3c(sc4ncnc(Nc5ccc6[nH]ncc6c5)c34)C2)CC1 (racemic) [Example 110, (R)S-[4-(1H-indazol-5-ylamino)-5,6,7,8-tetrahydro[1]benzothieno[2,3-d]pyrimidin-7-yl][4-(2-methylphenyl)piperazin-1-yl]methanone] | 132 nM
CC1CCN(CCN(C)C(=O)C2CCc3c(sc4ncnc(Nc5ccc6[nH]ncc6c5)c34)C2)CC1 (racemic) [Example 169, (RS)-4-(1H-indazol-5-ylamino)-N-methyl-N-[2-(4-methylpiperidin-1-yl)ethyl]-5,6,7,8-tetrahydro[1]benzothieno[2,3-d]pyrimidine-7-carboxamide] | 11.1 nM
COc1cc2[nH]ncc2cc1Nc1ncnc2sc3c(c12)CCC(C(=O)N1CC(C#N)C1)C3 (racemic) [Example 237, (RS)-1-({4-[(6-Methoxy-1H-indazol-5-yl)amino]-5,6,7,8-tetrahydro[1]benzothieno[2,3-d]pyrimidin-7-yl}carbonyl)azetidine-3-carbonitrile] | 0.3 nM
CN(C)CCN1CCN(C(=O)C2CCc3c(sc4ncnc(Nc5ccc6[nH]ncc6c5)c34)C2)CC1 (racemic) [Example 129, (RS)-{4-[2-(dimethylamino)ethyl]piperazin-1-yl}[4-(1H-indazol-5-ylamino)-5,6,7,8-tetrahydro[1]benzothieno[2,3-d]pyrimidin-7-yl]methanone] | 7.7 nM
O=C(NC1COC1)C1CCc2c(sc3ncnc(Nc4ccc5[nH]ncc5c4)c23)C1 (racemic) [Example 78, (RS)-4-(1H-Indazol-5-ylamino)-N-(oxetan-3-yl)-5,6,7,8-tetrahydro[1]benzothieno[2,3-d]pyrimidine-7-carboxamide] | 15.6 nM
CCOC(=O)C1CCc2c(sc3ncnc(Nc4cc5cn[nH]c5cc4Cl)c23)C1 (stereo not drawn) [Example 53, Ethyl 4-[(6-chloro-1H-indazol-5-yl)amino]-5,6,7,8-tetrahydro[1]benzothieno[2,3-d]pyrimidine-7-carboxylate] | 9 nM
O=C(NCCc1cccs1)C1CCc2c(sc3ncnc(Nc4ccc5[nH]ncc5c4)c23)C1 (racemic) [Example 116, (RS)-4-(1H-indazol-5-ylamino)-N-[2-(thiophen-2-yl)ethyl]-5,6,7,8-tetrahydro[1]benzothieno[2,3-d]pyrimidine-7-carboxamide] | 5.8 nM
CCOc1cc2[nH]ncc2cc1Nc1ncnc2sc3c(c12)CCC(C(=O)N1CC2(COC2)C1)C3 (racemic) [Example 239, (RS)-{4-[(6-Ethoxy-1H-indazol-5-yl)amino]-5,6,7,8-tetrahydro[1]benzothieno[2,3-d]pyrimidin-7-yl}(2-oxa-6-azaspiro[3.3]hept-6-yl)methanone] | 0.4 nM
Cn1cncc1CNC(=O)C1CCc2c(sc3ncnc(Nc4ccc5[nH]ncc5c4)c23)C1 (racemic) [Example 152, (RS)-4-(1H-indazol-5-ylamino)-N-[(1-methyl-1H-imidazol-5-yl)methyl]-5,6,7,8-tetrahydro[1]benzothieno[2,3-d]pyrimidine-7-carboxamide] | 16.8 nM
O=C(Nc1ccncc1)C1CCc2c(sc3ncnc(Nc4ccc5[nH]ncc5c4)c23)C1 (racemic) [Example 94, (RS)-4-(1H-indazol-5-ylamino)-N-(pyridin-4-yl)-5,6,7,8-tetrahydro[1]benzothieno[2,3-d]pyrimidine-7-carboxamide] | 23.4 nM
CC(C)Oc1cc2[nH]ncc2cc1Nc1ncnc2sc3c(c12)CCC(C(=O)N(C)C(C)C)C3 (racemic) [Example 215, (RS)—N-Methyl-N-(propan-2-yl)-4-{[6-(propan-2-yloxy)-1H-indazol-5-yl]amino}-5,6,7,8-tetrahydro[1]benzothieno[2,3-d]pyrimidine-7-carboxamide] | 0.5 nM
CCOc1cc2[nH]ncc2cc1Nc1ncnc2sc3c(c12)CCC(C(=O)O)C3 (racemic) [Example 210, (RS)-4-[(6-Ethoxy-1H-indazol-5-yl)amino]-5,6,7,8-tetrahydro[1]benzothieno[2,3-d]pyrimidine-7-carboxylic acid] | 73 nM
O=C(C1CCc2c(sc3ncnc(Nc4ccc5[nH]ncc5c4)c23)C1)N1CCN(Cc2ccccc2)CC1 (racemic) [Example 86, (RS)-(4-benzylpiperazin-1-yl)[4-(1H-indazol-5-ylamino)-5,6,7,8-tetrahydro[1]benzothieno[2,3-d]pyrimidin-7-yl]methanone] | 14.9 nM
O=C(C1CCc2c(sc3ncnc(Nc4ccc5[nH]ncc5c4)c23)C1)N1CC(O)C1 (racemic) [Example 159, (RS)-(3-hydroxyazetidin-1-yl)[4-(1H-indazol-5-ylamino)-5,6,7,8-tetrahydro[1]benzothieno[2,3-d]pyrimidin-7-yl]methanone] | 14.4 nM
CN(Cc1cccc(F)c1)C(=O)C1CCc2c(sc3ncnc(Nc4ccc5[nH]ncc5c4)c23)C1 (racemic) [Example 145, (RS)-N-(3-fluorobenzyl)-4-(1H-indazol-5-ylamino)-N-methyl-5,6,7,8-tetrahydro[1]benzothieno[2,3-d]pyrimidine-7-carboxamide] | 4.9 nM
O=C(NCCN1CCOCC1)C1CCc2c(sc3ncnc(Nc4ccc5[nH]ncc5c4)c23)C1 (stereo not drawn) [Example 42, 4-(1H-Indazol-5-ylamino)-N-[2-(morpholin-4-yl)ethyl]-5,6,7,8-tetrahydro[1] benzothieno [2,3-d]pyrimidine-7-carboxamide] | 9 nM
O=C(NC1CC1)C1CCc2c(sc3ncnc(Nc4ccc5[nH]ncc5c4)c23)C1 (racemic) [Example 80, (RS)-N-Cyclopropyl-4-(1H-indazol-5-ylamino)-5,6,7,8-tetrahydro[1]benzothieno[2,3-d]pyrimidine-7-carboxamide] | 9.1 nM
O=C(NCc1ccccn1)C1CCc2c(sc3ncnc(Nc4ccc5[nH]ncc5c4)c23)C1 (racemic) [Example 81, (RS)-4-(1H-indazol-5-ylamino)-N-(pyridin-2-ylmethyl)-5,6,7,8-tetrahydro[1]benzothieno[2,3-d]pyrimidine-7-carboxamide] | 2.4 nM
CCCN(C)C(=O)C1CCc2c(sc3ncnc(Nc4cc5cn[nH]c5cc4OCC)c23)C1 (racemic) [Example 253, (RS)-4-[(6-Ethoxy-1H-indazol-5-yl)amino]-N-methyl-N-propyl-5,6,7,8-tetrahydro[1]benzothieno[2,3-d]pyrimidine-7-carboxamide] | 1.2 nM
O=C(C1CCc2c(sc3ncnc(Nc4ccc5[nH]ncc5c4)c23)C1)N1CC(N2CCCCC2)C1 (racemic) [Example 200, (RS)-[4-(1H-indazol-5-ylamino)-5,6,7,8-tetrahydro[1]benzothieno[2,3-d]pyrimidin-7-yl][3-(piperidin-1-yl)azetidin-1-yl]methanone] | 8.6 nM
Cc1ccc(CNC(=O)C2CCc3c(sc4ncnc(Nc5ccc6[nH]ncc6c5)c34)C2)cc1 (stereo not drawn) [Example 27, 4-(1H-Indazol-5-ylamino)-N-(4-methylbenzyl)-5,6,7,8-tetrahydro[1] benzothieno [2,3-d]pyrimidine-7-carboxamide] | 3 nM
Cn1nccc1NC(=O)C1CCc2c(sc3ncnc(Nc4ccc5[nH]ncc5c4)c23)C1 (racemic) [Example 117, (RS)-4-(1H-indazol-5-ylamino)-N-(1-methyl-1H-pyrazol-5-yl)-5,6,7,8-tetrahydro[1]benzothieno[2,3-d]pyrimidine-7-carboxamide] | 11.2 nM
Cc1ccc(NC(=O)C2CCc3c(sc4ncnc(Nc5ccc6[nH]ncc6c5)c34)C2)cc1 (stereo not drawn) [Example 17, 4-(1H-indazol-5-ylamino)-N-(4-methylphenyl)-5,6,7,8-tetrahydro[1]benzothieno[2,3-d]pyrimidine-7-carboxamide] | 5 nM
O=C(C1CCc2c(sc3ncnc(Nc4ccc5[nH]ncc5c4)c23)C1)N1CCN(Cc2ccncc2)CC1 (racemic) [Example 142, (RS)-[4-(1H-indazol-5-ylamino)-5,6,7,8-tetrahydro[1]benzothieno[2,3-d]pyrimidin-7-yl][4-(pyridin-4-ylmethyl)piperazin-1-yl]methanone] | 22.4 nM
CCOc1cc2[nH]ncc2cc1Nc1ncnc2sc3c(c12)CCC(C(=O)N(C)C(C)C)C3 (racemic) [Example 224, (RS)-4-[(6-Ethoxy-1H-indazol-5-yl)amino]-N-isopropyl-N-methyl-5,6,7,8-tetrahydro[1]benzothieno[2,3-d]pyrimidine-7-carboxamide] | 0.6 nM
